Measured values as given in patent US20250025443A1, “COMPOUNDS AND METHODS FOR TREATING CORONA VIRUSES” (CLEAR CREEK BIO, INC., priority 2021, published 2025).

Target: SARS-CoV-2 Papain-Like Protease (PLpro) (Severe acute respiratory syndrome coronavirus 2 (2019-nCoV) (SARS-CoV-2), UniProt P0DTD1)
Test: biochemical
Details: PLpro enzymatic fluorescence assay; class symbols; read-out: PLpro IC50

| Compound | IC50 [nM] |
| --- | --- |
| Cc1ccc(OC[C@@H]2CCN2C)cc1C(=O)NC1(c2cc(C#CC(F)(F)F)cc3ncccc23)CC1 [Compound 803, (S)-2-Methyl-5-((1-methylazetidin-2-yl)methoxy)-N-(1-(7-(3,3,3-trifluoroprop-1-yn-1-yl)quinolin-5-yl)cyclopropyl)benzamide] | < 100 |
| [2H]C1([2H])C([2H])([2H])C1(NC(=O)c1cc(OC[C@@H]2CCN2C)ccc1C)c1cc(OC)cc2nc(C)ccc12 [Compound 804, (S)—N-(1-(7-Methoxy-2-methylquinolin-5-yl)cyclopropyl-2,2,3,3-d)-2-methyl-5-((1-methylazetidin-2-yl)methoxy)benzamide] | < 100 |
| Cc1ccc(OC[C@@H]2CCN2C)cc1C(=O)NC1(c2cc(-c3ccc(CN4CCC(F)(F)C4)s3)cc3ncccc23)CC1 [Compound 805, (S)—N-(1-(7-(5-((3,3-Difluoropyrrolidin-1-yl)methyl)thiophen-2-yl)quinolin-5-yl)cyclopropyl)-2-methyl-5-((1-methylazetidin-2-yl)methoxy)benzamide] | < 100 |
| CC(=O)c1ncc(-c2cc(C3(NC(=O)c4cc(OC[C@@H]5CCN5C)ccc4C)CC3)c3cccnc3c2)o1 [Compound 806, (S)-N-(1-(7-(2-Acetyloxazol-5-yl)quinolin-5-yl)cyclopropyl)-2-methyl-5-((1-methylazetidin-2-yl)methoxy)benzamide] | < 100 |
| Cc1ccc(-c2cc(C3(NC(=O)c4cc(OC[C@@H]5CCN5C)ccc4C)COC3)c3cccnc3c2)o1 [Compound 808] | < 100 |
| Cc1ccc2c(C3(NC(=O)c4cc(OC[C@@H]5CCN5C)ccc4C)CC3)cc(O)cc2n1 [Compound 809, (S)-N-(1-(7-Hydroxy-2-methylquinolin-5-yl)cyclopropyl)-2-methyl-5-((1-methylazetidin-2-yl)methoxy)benzamide] | < 100 |
| Cc1ccc2c(C3(NC(=O)c4cc(OC[C@@H]5CCN5C)ccc4C)CC3)cc(N3CC(C(F)(F)F)C3)cc2n1 [Compound 810, (S)-2-Methyl-N-(1-(2-methyl-7-(3-(trifluoromethyl)azetidin-1-yl)quinolin-5-yl)cyclopropyl)-5-((1-methylazetidin-2-yl)methoxy)benzamide] | < 100 |
| COC1CN(c2cc(C3(NC(=O)c4cc(OC[C@@H]5CCN5C)ccc4C)CC3)c3ccc(C)nc3c2)C1 [Compound 811, (S)—N-(1-(7-(3-Methoxyazetidin-1-yl)-2-methylquinolin-5-yl)cyclopropyl)-2-methyl-5-((1-methylazetidin-2-yl)methoxy)benzamide] | < 100 |
| Cc1nc(Cl)c(-c2cc(C3(NC(=O)c4cc(OC[C@@H]5CCN5C)ccc4C)CC3)c3cccnc3c2)s1 [Compound 812, (S)-N-(1-(7-(4-Chloro-2-methylthiazol-5-yl)quinolin-5-yl)cyclopropyl)-2-methyl-5-((1-methylazetidin-2-yl)methoxy)benzamide] | < 100 |
| C=Cc1cc(C2(NC(=O)c3cc(OC[C@@H]4CCN4C)ccc3C)CC2)c2ccc(C)nc2c1 [Compound 813, (S)-2-Methyl-N-(1-(2-methyl-7-vinylquinolin-5-yl)cyclopropyl)-5-((1-methylazetidin-2-yl)methoxy)benzamide] | < 100 |
| Cc1ncc(-c2cc(C3(NC(=O)c4cc(OC[C@@H]5CCN5C)ccc4C)CC3)c3cccnc3c2Cl)s1 [Compound 814, (S)-N-(1-(8-Chloro-7-(2-methylthiazol-5-yl)quinolin-5-yl)cyclopropyl)-2-methyl-5-((1-methylazetidin-2-yl)methoxy)benzamide] | < 100 |
| Cc1ccc2c(C3(NC(=O)c4cc(OC[C@@H]5CCN5C)ccc4C)CC3)cc(CCC(F)(F)F)cc2n1 [Compound 815, (S)-2-Methyl-N-(1-(2-methyl-7-(3,3,3-trifluoropropyl)quinolin-5-yl)cyclopropyl)-5-((1-methylazetidin-2-yl)methoxy)benzamide] | < 100 |
| Cc1ccc2c(C3(NC(=O)c4cc(OC[C@@H]5CCN5C)ccc4C)CC3)cc(N3CC(F)C3)cc2n1 [Compound 816, (S)—N-(1-(7-(3-Fluoroazetidin-1-yl)-2-methylquinolin-5-yl)cyclopropyl)-2-methyl-5-((1-methylazetidin-2-yl)methoxy)benzamide] | < 100 |
| COc1cc(C2(NC(=O)c3cc(OC[C@@H]4CCN4C)ccc3C)CC2)c2ccc(C(F)(F)F)nc2c1 [Compound 817, (S)-N-(1-(7-Methoxy-2-(trifluoromethyl)quinolin-5-yl)cyclopropyl)-2-methyl-5-((1-methylazetidin-2-yl)methoxy)benzamide] | < 100 |
| Cc1ccc(OC[C@@H]2CCN2C)cc1C(=O)NC1(c2cc(N(C)S(C)(=O)=O)cc3ncccc23)CC1 [Compound 818, (S)-2-Methyl-5-((1-methylazetidin-2-yl)methoxy)-N-(1-(7-(N-methylmethylsulfonamido)quinolin-5-yl)cyclopropyl)benzamide] | < 100 |
| Cc1ccc2c(C3(NC(=O)c4cc(OC[C@@H]5CCN5C)ccc4C)CC3)cc(N(C)S(C)(=O)=O)cc2n1 [Compound 819, (S)-2-Methyl-N-(1-(2-methyl-7-(N-methylmethylsulfonamido)quinolin-5-yl)cyclopropyl)-5-((1-methylazetidin-2-yl)methoxy)benzamide] | < 100 |
| CC(=O)c1ccc(-c2cc(C3(NC(=O)c4cc(OC[C@@H]5CCN5C)ccc4C)COC3)c3cccnc3c2)s1 [Compound 821, (S)-N-(3-(7-(5-Acetylthiophen-2-yl)quinolin-5-yl)oxetan-3-yl)-2-methyl-5-((1-methylazetidin-2-yl)methoxy)benzamide] | < 100 |
| Cc1ccc2c(C3(NC(=O)c4cc(OC[C@@H]5CCN5C)ccc4C)CC3)cc(OCF)cc2n1 [Compound 823, (S)—N-(1-(7-(Fluoromethoxy)-2-methylquinolin-5-yl)cyclopropyl)-2-methyl-5-((1-methylazetidin-2-yl)methoxy)benzamide] | < 100 |
| CC#Cc1cc(C2(NC(=O)c3cc(OC[C@@H]4CCN4C)ccc3C)CC2)c2ccc(C)nc2c1 [Compound 824, (S)-2-Methyl-N-(1-(2-methyl-7-(prop-1-yn-1-yl)quinolin-5-yl)cyclopropyl)-5-((1-methylazetidin-2-yl)methoxy)benzamide] | < 100 |
| Cc1ccc2c(C3(NC(=O)c4cc(OC[C@@H]5CCN5C)ccc4C)CC3)cc(NS(C)(=O)=O)cc2n1 [Compound 825, (S)-2-Methyl-N-(1-(2-methyl-7-(methylsulfonamido)quinolin-5-yl)cyclopropyl)-5-((1-methylazetidin-2-yl)methoxy)benzamide] | < 100 |
| Cc1ccc2c(C3(NC(=O)c4cc(OC[C@@H]5CCN5C)ccc4C)CC3)cc(NCC(F)(F)F)cc2n1 [Compound 826, (S)-2-Methyl-N-(1-(2-methyl-7-((2,2,2-trifluoroethyl)amino)quinolin-5-yl)cyclopropyl)-5-((1-methylazetidin-2-yl)methoxy)benzamide] | < 100 |
| (S)-2-Methyl-N-(1-(2-methyl-7-((2,2,2-trifluoroethyl)amino)quinolin-5-yl)cyclopropyl)-5-((1-methylazetidin-2-yl)methoxy)benzamide [Compound 807] | < 100 |
| (S)-5-(Azetidin-2-ylmethoxy)-2-methyl-N-(1-(7-morpholinoquinolin-5-yl)cyclopropyl)benzamide [Compound 712] | < 100 |
| (S)—N-(1-(7-Methoxy-2-methylquinolin-5-yl)cyclopropyl)-2-methyl-5-((1-(methyl-d3)azetidin-2-yl)methoxy)benzamide [Compound 798] | < 100 |
